Results published in patent US4532367A, “Antimicrobially effective derivatives of phenol and methods for their production” (VEB Jenapharm, priority 1981, dated 1985).
Structures can show the parent of a compound that is named as a salt.

What was measured:
[1] = Acute toxicity in white mice with subcutaneous application; conditions: mouse, in vivo, sc
Source text: *The toxicity in mg/kg body weight is understood as acute toxicity in
white mice with subcutaneous application.

[2] = known compound, background statement; cited from earlier work
[3] = known compound, background statement; cited from earlier work; remark: listed apart in the source
antimicrobial = conditions: known compound, background statement; cited from earlier work
Stability = type: physicochemical; conditions: in words
Solubility in water = type: physicochemical; conditions: in words
Gram-Positive Bacteria = assay: Effectiveness against gram-positive bacteria (general statement); type: cell-based; conditions: in words

| Structure (SMILES) | LD50 [1] | solubility in water (Solubility in water) | further results |
| --- | --- | --- | --- |
| CCc1cc(Cc2ccccc2)cc(Br)c1O [2-bromo-6-ethyl-4-benzylphenol, 6-bromo-2-ethyl-4-benzylphenol] | 2800 mg/kg | – | – |
| Cc1cc(Cc2ccccc2)cc(Br)c1O [2-bromo-6-methyl-4-benzylphenol, 6-bromo-2-methyl-4-benzylphenol] | 1500 mg/kg | – | – |
| Cc1cc(Cc2ccccc2)cc(Cl)c1O [2-chloro-6-methyl-4-benzylphenol] | 1200 mg/kg | – | water-solubility [2]: difficult water-solubility; skin compatibility [3]: well skin-compatible; antimicrobial efficacy (antimicrobial): generally good antimicrobial efficacy |
| Cc1cc(Cc2ccccc2)cc(Cl)c1O [calcium salt of 2-chloro-6-methyl-4-benzylphenol] [calcium salt of 6-chloro-2-methyl-4-benzylphenol] | – | only little soluble in water | stability (Stability): very stable; effectiveness against gram-positive bacteria (Gram-Positive Bacteria): particularly effective |
| Cc1cc(Cc2ccccc2)cc(Cl)c1O [potassium salt of 6-chloro-2-methyl-4-benzylphenol] | – | good | – |
| Cc1cc(Cc2ccccc2)cc(Cl)c1O [sodium salt of 6-chloro-2-methyl-4-benzylphenol] | – | well water-soluble | – |
